These results are taken from patent US20230085307A1, “PYRIDAZINONE COMPOUND AND HERBICIDE” (NISSAN CHEMICAL CORPORATION, priority 2019, published 2023).

One assay has as its system southern crabgrass. Description: Test Example 4: herbicidal effect by soil treatment (Table 19, symbol F). The format is in vivo, southern crabgrass (Digitaria ciliaris). Particulars: 320 g/ha. The procedure, abridged:
(§1)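 Step 1: sow seeds in sterilized diluvial soil, cover ~1.5 cm. Step 2: spray diluted emulsion onto soil surface at predetermined rate. Step 3: greenhouse, 25–30° C, three weeks. Step 4: grade effect on each plant by earlier criteria.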
For `CSc1ccc(-c2sc3ccc(F)cc3c2-c2c(O)c(C)nn(C)c2=O)cc1` [2-076], the “herbicidal effect rating, F: southern crabgrass” value was 3 (Herbicidal rate of 40% or more and less than 70%).

On to `CCCC(=O)Oc1c(C)nn(C)c(=O)c1-c1c(-c2ccc(SC)cc2)sc2ccc(F)cc12` [2-077], for which the “herbicidal effect rating, F: southern crabgrass” value was 2 (Herbicidal rate of 20% or more and less than 40%).

For a further assay, the system named is oval-leafed pondweed. Description: Test Example 2: herbicidal activity, application during weed generation under submerged conditions (Table 17, symbol C). It is filed as in vivo, oval-leafed pondweed (Monochoria vaginalis). Particulars: AAH 320 g/ha; application during weed generation, submerged conditions. The procedure, abridged:
(§2)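 Alluvial soil in Wagner pots was flooded to 4 cm depth and sown with the three weeds together; pots were kept in a greenhouse at 25° C. to 30° C. At the one to two leaf stage, an emulsion formulation diluted in water to a set rate went onto the water surface; scored three weeks later.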
With `CSc1ccc(-c2sc3ccc(F)cc3c2-c2c(O)c(C)nn(C)c2=O)cc1` [2-076], the “herbicidal effect rating, C: oval-leafed pondweed” value is 0 (Herbicidal rate of 5% or less (almost no effect)).

Take `CCCC(=O)Oc1c(C)nn(C)c(=O)c1-c1c(-c2ccc(SC)cc2)sc2ccc(F)cc12` [2-077]: the “herbicidal effect rating, C: oval-leafed pondweed” value is 3 (Herbicidal rate of 40% or more and less than 70%).

A further assay has as its system velvetleaf. Description: Test Example 4: herbicidal effect by soil treatment (Table 19, symbol M). It is filed as in vivo, velvetleaf (Abutilon theophrasti). Particulars: 320 g/ha. The gist of the method:
as §1
For `CSc1ccc(-c2sc3ccc(F)cc3c2-c2c(O)c(C)nn(C)c2=O)cc1` [2-076], the “herbicidal effect rating, M: velvetleaf” value is 2 (Herbicidal rate of 20% or more and less than 40%).

As for `CCCC(=O)Oc1c(C)nn(C)c(=O)c1-c1c(-c2ccc(SC)cc2)sc2ccc(F)cc12` [2-077], the “herbicidal effect rating, M: velvetleaf” value was 3 (Herbicidal rate of 40% or more and less than 70%).

In the next assay the test system is wild oat. Description: Test Example 4: herbicidal effect by soil treatment (Table 19, symbol I). To be noted: 320 g/ha. It is filed as in vivo, wild oat (Avena fatua). The gist of the method: as §1
In the case of `CSc1ccc(-c2sc3ccc(F)cc3c2-c2c(O)c(C)nn(C)c2=O)cc1` [2-076], the “herbicidal effect rating, I: wild oat” value is reported as 0 (Herbicidal rate of 5% or less (almost no effect)).

Consider `CCCC(=O)Oc1c(C)nn(C)c(=O)c1-c1c(-c2ccc(SC)cc2)sc2ccc(F)cc12` [2-077], for which the “herbicidal effect rating, I: wild oat” value was 2 (Herbicidal rate of 20% or more and less than 40%).

In another assay the test system is green foxtail. Description: Test Example 5: herbicidal effect by foliage application, plastic box (Table 20, symbol G). It is filed as in vivo, green foxtail (Setaria viridis). To be noted: foliage application, 320 g/ha, evaluated three weeks after application. The procedure, abridged: (§3)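 Foliar spray test: emulsion formulation diluted in water to a set application rate, sprayed onto 14-day-old plants raised in diluvial soil at 25° C to 30° C under glass. Both herbicidal effect and crop effect rated visually three weeks later.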
For the compound `CSc1ccc(-c2sc3ccc(F)cc3c2-c2c(O)c(C)nn(C)c2=O)cc1` [2-076], the “herbicidal effect on G: green foxtail” value is on record as 5 (Herbicidal rate of 90% or more (almost completely withered)).

With `CCCC(=O)Oc1c(C)nn(C)c(=O)c1-c1c(-c2ccc(SC)cc2)sc2ccc(F)cc12` [2-077], the “herbicidal effect on G: green foxtail” value is recorded as 5 (Herbicidal rate of 90% or more (almost completely withered)).

In another assay the test system is barnyard grass. Description: Test Example 4: herbicidal effect by soil treatment (Table 19, symbol H). It is filed as in vivo, barnyard grass (Echinochloa crus-galli). To be noted: 320 g/ha. The procedure, abridged: as §1
On to `CSc1ccc(-c2sc3ccc(F)cc3c2-c2c(O)c(C)nn(C)c2=O)cc1` [2-076], for which the “herbicidal effect rating, H: barnyard grass” value is 3 (Herbicidal rate of 40% or more and less than 70%).

Regarding `CCCC(=O)Oc1c(C)nn(C)c(=O)c1-c1c(-c2ccc(SC)cc2)sc2ccc(F)cc12` [2-077], the “herbicidal effect rating, H: barnyard grass” value was 3 (Herbicidal rate of 40% or more and less than 70%).

The test system of another assay is green foxtail. Description: Test Example 4: herbicidal effect by soil treatment (Table 19, symbol G). It is filed as in vivo, green foxtail (Setaria viridis). To be noted: 320 g/ha. The procedure, abridged: as §1
`CSc1ccc(-c2sc3ccc(F)cc3c2-c2c(O)c(C)nn(C)c2=O)cc1` [2-076]: the “herbicidal effect rating, G: green foxtail” value was 4 (Herbicidal rate of 70% or more and less than 90%).

Regarding `CCCC(=O)Oc1c(C)nn(C)c(=O)c1-c1c(-c2ccc(SC)cc2)sc2ccc(F)cc12` [2-077], the “herbicidal effect rating, G: green foxtail” value is 4 (Herbicidal rate of 70% or more and less than 90%).

For a further assay, the system named is Japanese bulrush. Description: Test Example 2: herbicidal activity, application during weed generation under submerged conditions (Table 17, symbol B). The format is in vivo, Japanese bulrush (Schoenoplectus juncoides). To be noted: AAH 320 g/ha; application during weed generation, submerged conditions. The procedure, abridged: as §2
Take `CSc1ccc(-c2sc3ccc(F)cc3c2-c2c(O)c(C)nn(C)c2=O)cc1` [2-076]: the “herbicidal effect rating, B: Japanese bulrush” value is 3 (Herbicidal rate of 40% or more and less than 70%).

Regarding `CCCC(=O)Oc1c(C)nn(C)c(=O)c1-c1c(-c2ccc(SC)cc2)sc2ccc(F)cc12` [2-077], the “herbicidal effect rating, B: Japanese bulrush” value was 3 (Herbicidal rate of 40% or more and less than 70%).

In the next assay the test system is persian speedwell. Description: Test Example 5: herbicidal effect by foliage application, plastic box (Table 20, symbol R). The format is in vivo, Persian speedwell (Veronica persica). Particulars: foliage application, 320 g/ha, evaluated three weeks after application. The gist of the method: as §3
Regarding `CSc1ccc(-c2sc3ccc(F)cc3c2-c2c(O)c(C)nn(C)c2=O)cc1` [2-076], the “herbicidal effect on R: persian speedwell” value is listed as 5 (Herbicidal rate of 90% or more (almost completely withered)).

With `CCCC(=O)Oc1c(C)nn(C)c(=O)c1-c1c(-c2ccc(SC)cc2)sc2ccc(F)cc12` [2-077], the “herbicidal effect on R: persian speedwell” value is 5 (Herbicidal rate of 90% or more (almost completely withered)).

Another assay deals with late watergrass. Description: Test Example 2: herbicidal activity, application during weed generation under submerged conditions (Table 17, symbol A). It is filed as in vivo, late watergrass (Echinochloa oryzicola). Particulars: AAH 320 g/ha; application during weed generation, submerged conditions. The gist of the method: as §2
`CSc1ccc(-c2sc3ccc(F)cc3c2-c2c(O)c(C)nn(C)c2=O)cc1` [2-076]: the “herbicidal effect rating, A: late watergrass” value was 2 (Herbicidal rate of 20% or more and less than 40%).

Turning to `CCCC(=O)Oc1c(C)nn(C)c(=O)c1-c1c(-c2ccc(SC)cc2)sc2ccc(F)cc12` [2-077], the “herbicidal effect rating, A: late watergrass” value was 4 (Herbicidal rate of 70% or more and less than 90%).

The subject of the next assay is blackgrass. Description: Test Example 4: herbicidal effect by soil treatment (Table 19, symbol J). The format is in vivo, blackgrass (Alopecurus myosuroides). To be noted: 320 g/ha. The procedure, abridged: as §1
Take `CSc1ccc(-c2sc3ccc(F)cc3c2-c2c(O)c(C)nn(C)c2=O)cc1` [2-076]: the “herbicidal effect rating, J: blackgrass” value is on record as 0 (Herbicidal rate of 5% or less (almost no effect)).

As for `CCCC(=O)Oc1c(C)nn(C)c(=O)c1-c1c(-c2ccc(SC)cc2)sc2ccc(F)cc12` [2-077], the “herbicidal effect rating, J: blackgrass” value is 2 (Herbicidal rate of 20% or more and less than 40%).

A further assay concerns redroot pigweed. Description: Test Example 4: herbicidal effect by soil treatment (Table 19, symbol N). It is filed as in vivo, redroot pigweed (Amaranthus retroflexus). Particulars: 320 g/ha. The procedure, abridged: as §1
Regarding `CSc1ccc(-c2sc3ccc(F)cc3c2-c2c(O)c(C)nn(C)c2=O)cc1` [2-076], the “herbicidal effect rating, N: redroot pigweed” value is 5 (Herbicidal rate of 90% or more (almost completely withered)).

Turning to `CCCC(=O)Oc1c(C)nn(C)c(=O)c1-c1c(-c2ccc(SC)cc2)sc2ccc(F)cc12` [2-077], the “herbicidal effect rating, N: redroot pigweed” value is on record as 5 (Herbicidal rate of 90% or more (almost completely withered)).

A further assay concerns Italian ryegrass. Description: Test Example 5: herbicidal effect by foliage application, plastic box (Table 20, symbol K). To be noted: foliage application, 320 g/ha, evaluated three weeks after application. The format is in vivo, Italian ryegrass (Lolium multiflorum). The procedure, abridged: as §3
As to `CSc1ccc(-c2sc3ccc(F)cc3c2-c2c(O)c(C)nn(C)c2=O)cc1` [2-076], the “herbicidal effect on K: Italian ryegrass” value is 4 (Herbicidal rate of 70% or more and less than 90%).

In the case of `CCCC(=O)Oc1c(C)nn(C)c(=O)c1-c1c(-c2ccc(SC)cc2)sc2ccc(F)cc12` [2-077], the “herbicidal effect on K: Italian ryegrass” value is 5 (Herbicidal rate of 90% or more (almost completely withered)).

A further assay concerns lambsquarters. Description: Test Example 5: herbicidal effect by foliage application, plastic box (Table 20, symbol O). It is filed as in vivo, lambsquarters (Chenopodium album). Particulars: foliage application, 320 g/ha, evaluated three weeks after application. The gist of the method: as §3
For the compound `CSc1ccc(-c2sc3ccc(F)cc3c2-c2c(O)c(C)nn(C)c2=O)cc1` [2-076], the “herbicidal effect on O: lambsquarters” value is given as 5 (Herbicidal rate of 90% or more (almost completely withered)).

Turning to `CCCC(=O)Oc1c(C)nn(C)c(=O)c1-c1c(-c2ccc(SC)cc2)sc2ccc(F)cc12` [2-077], the “herbicidal effect on O: lambsquarters” value was 5 (Herbicidal rate of 90% or more (almost completely withered)).
